Results published in patent US20160009686A1, “VEGFR3 INHIBITORS” (CANCER THERAPEUTICS CRC PTY LIMITED, priority 2012, published 2016).

Columns and labels:
FAK = target: T1, FAK (Homo sapiens, UniProt Q05397); assay: P397Y-FAK Inhibition MSD Platform Cellular Biomarker Assay; type: cell-based; conditions: MDA-231-LNA cells, treated for 1 hour; pFAK-397 levels
T1 construct: endogenous in cells; host or cells: MDA-231-LNA
Method: 96-well plates (cat#MA6000, Meso Scale Discovery) are coated with 30 μL/well of mouse monoclonal FAK antibody [63D5] (cat#ab72140, Abcam) pre-diluted in PBS to a concentration of 1 mg/mL. The plates are sealed with adhesive film and incubated for 16 hours at 4° C. The antibody is then flicked out of the plates and 150 μL of 3% [w/v] Blocker A (cat#R93AA-1, Meso Scale Discovery) is added. The plates are resealed with adhesive film and incubated at room temperature on a shaker set at medium speed for 2 hours. The plates are then washed three times with a solution containing 50 mM Tris-HCl pH 7.5, 0.15 M NaCl and 0.02% Tween-20, before cell lysate addition described below.
On the day prior to compound treatment, 200 μL media containing 20,000 cells is seeded into all wells of white, clear-bottom, TC treated, pclear, 96-well microtitre plates (cat#655098, Greiner Bio-One), and the plates are incubated at 37° C. and 5% CO2 for 36 hours. 1 μL/well of compound is then added from dilution series prepared in DMSO. Negative control wells receive the same volume of DMSO without compounds, and positive control wells receive 2 μM of a control compound in the same volume of DMSO. Cells are treated for 1 hour at 37° C. and 5% CO2. The media/compounds are then flicked off and 55 μL/well of ice-cold complete lysis buffer is added. […] Plates are incubated on ice for 30 minutes, with 30 seconds high speed plate shaking every 5 minutes. 40 μL/well of cell lysate is transferred to the coated, blocked and washed 96-well microtitre plates described above. The 96-well plates are sealed with adhesive film and incubated for 16 hours at 4° C. The plates are then washed three times with a solution containing 50 mM Tris-HCl pH 7.5, 0.15 M NaCl and 0.02% Tween-20 and tapped dry. […] Plates are then washed three times with a solution containing 50 mM Tris-HCl pH 7.5, 0.15 M NaCl and 0.02% Tween-20 and tapped dry. 150 μL/well of Read Buffer T+Surfactant (cat#R92TC-1, Meso Scale Discovery) is then added, and pFAK-397 levels quantified using a Meso Scale Discovery SECTOR Imager 6000 instrument.

VEGFR2 = target: T2, VEGFR2 (Homo sapiens, UniProt P35968); assay: VEGFR2 Phospho ELISA Assay; type: cell-based; conditions: HUVEC, treated for 1 hour, VEGF stimulated; phospho VEGFR2 relative to Total VEGFR2
T2 construct: host or cells: HUVEC
Method: Adult human umbilical vein endothelial cells (HUVEC) (Cat# CC-2519, Lonza) were seeded into clear-bottom, TC treated 12 well plates (Cat #665180, Greiner Bio-One) in EGM-2 (Cat# CC-3162, Lonza) at 180,000 cells/well (volume 1 mL), and the plates incubated at 37° C. and 5% CO2 for 6 hours.
96 well Maxisorp immuno plates (Cat #439454, Nunc) were coated with 100 μL of Total VEGFR2 capture antibody (Part #841434, Human Total VEGFR2/FLT4 ELISA Kit, Cat # DYC1780, R&D Systems), or Phospho VEGFR2 Capture antibody (Part #841419, Human Phospho VEGFR2/FLT4 ELISA Kit, Cat# DYC1766, R&D Systems). The plates were covered and incubated at room temperature overnight.
The coating antibody was flicked out and the plates washed three times with Wash Buffer (Phosphate buffered saline (137 mM NaCl, 2.7 nM KCl, 8.1 nM Na2HPO4, 1.5 mL KH2PO4, pH 7.2-7.4), 0.05% Tween 20). 300 μL of Blocking buffer (1% v/v BSA (Cat# A8412, Sigma) in PBS) was then added to wells and plate incubated for 2 hours at room temperature. Blocking solution is flicked out and plates washed three times and tapped dry.
Compound dilution series were prepared in EBM-2 (Cat # CC-3156, Lonza)+0.1% BSA (Cat# A8412, Sigma) with constant 0.1% DMSO concentration. 427.5 μL of sample or vehicle control was added to the cell monolayers. Cells are treated for 1 hour at 37° C. and 5% CO2. 50 ng/mL Recombinant human VEGF (Cat #293-VC, R & D Systems) added to wells and plates incubated for an additional 10 minutes at 37° C. and 5% CO2.
(§1) The media and compounds were removed and the cell monolayer washed once in Dulbecco's Phosphate Buffered Saline (Cat #21600-044, Invitrogen). 130 μL of Lysis buffer added to wells and cell lysate harvested and transferred to tubes and stored on ice. Complete lysis buffer was prepared by adding 10 μL Protease Inhibitor Cocktail (Cat # P8340, Sigma-Aldrich), 10 μL PMSF (Phenylmethanesulfonyl fluoride, Cat # P7626, Sigma-Aldrich, prepared as 500 mM DMSO stock) per 1 mL of Phosphosafe™ Extraction Reagent (Cat #71296, Merck).
The plates were then washed three times in wash buffer as described above and tapped dry.
For detection of Total VEGFR2 100 μL of Detection antibody (Total VEGFR2 Detection Antibody Part#841435 in Total VEGFR2 kit) diluted in IC Diluent #14 (20 mM Tris, 137 mM CaCl2, 0.05% Tween20, 0.1% BSA) was added to wells and the plate incubated for 2 hours at room temperature. The plate was then washed three times in wash buffer and tapped dry. 100 μL of streptavidin-HPR diluted in IC diluent #14 Streptavidin-HRP, Part #890803 in Total VEGFR2 kit) was added to wells and incubated at room temperature for 20 minutes followed by washing as described above. 100 μL Substrate solution (3,3′,5,5′-Tetramethylbenzidine (TMB) Liquid Substrate System for ELISA, Cat # T0440, Sigma-Aldrich) was added and the plate incubated for 20 minutes in the dark at room temperature followed by the addition of 50 μL stop solution (2 M H2SO4).
Total VEGFR2 levels were quantified using a Multiskan Ascent plate reader and Ascent software fitted with 450 nm filter.
For detection of Phospho VEGFR2, 100 μL of Detection antibody (Anti-Phospho-Tyrosine-HRP Detection Antibody, Part #841403 in Phospho VEGFR2 kit) was diluted in IC Diluent 14 (20 mM Tris, 137 mM CaCl2, 0.05% Tween20, 0.1% BSA), was added to the wells and the plate incubated for 2 hours at room temperature. The plate was then washed three times in wash buffer as described above and tapped dry. 100 μL Substrate solution (3,3′,5,5′-Tetramethylbenzidine (TMB) Liquid Substrate System for ELISA, Cat # T0440, Sigma-Aldrich) was added and the plate incubated for 20 minutes in the dark at room temperature followed by the addition of 50 μL stop solution (2 M H2SO4).
Phospho VEGFR2 levels were quantified using a Multiscan ascent plate reader and ascent software fitted with 450 nm filter.
IC50 values are determined by first calculating the level of phospho VEGFR2 relative to Total VEGFR2 according to the following formula:

[1] = target: VEGFR3 cytoplasmic domain (Homo sapiens, UniProt P35916); assay: VEGFR3 Biochemical Assay (AlphaScreen); conditions: GST-fusion enzyme, 500 μM ATP, 90 minutes at 30 degree Celsius (modified form in some cases: Hexa-His-fusion enzyme, 1 μM ATP); read-out: IC50
VEGFR3 = VEGFR3 (Homo sapiens, UniProt P35916); assay: VEGFR3 Phospho ELISA Assay; type: cell-based; conditions: HMVEC-dLyAD cells, treated for 1 hour, VEGFC stimulated; phospho VEGFR3 relative to Total VEGFR3
Chain of VEGFR3 (P35916 25-1363): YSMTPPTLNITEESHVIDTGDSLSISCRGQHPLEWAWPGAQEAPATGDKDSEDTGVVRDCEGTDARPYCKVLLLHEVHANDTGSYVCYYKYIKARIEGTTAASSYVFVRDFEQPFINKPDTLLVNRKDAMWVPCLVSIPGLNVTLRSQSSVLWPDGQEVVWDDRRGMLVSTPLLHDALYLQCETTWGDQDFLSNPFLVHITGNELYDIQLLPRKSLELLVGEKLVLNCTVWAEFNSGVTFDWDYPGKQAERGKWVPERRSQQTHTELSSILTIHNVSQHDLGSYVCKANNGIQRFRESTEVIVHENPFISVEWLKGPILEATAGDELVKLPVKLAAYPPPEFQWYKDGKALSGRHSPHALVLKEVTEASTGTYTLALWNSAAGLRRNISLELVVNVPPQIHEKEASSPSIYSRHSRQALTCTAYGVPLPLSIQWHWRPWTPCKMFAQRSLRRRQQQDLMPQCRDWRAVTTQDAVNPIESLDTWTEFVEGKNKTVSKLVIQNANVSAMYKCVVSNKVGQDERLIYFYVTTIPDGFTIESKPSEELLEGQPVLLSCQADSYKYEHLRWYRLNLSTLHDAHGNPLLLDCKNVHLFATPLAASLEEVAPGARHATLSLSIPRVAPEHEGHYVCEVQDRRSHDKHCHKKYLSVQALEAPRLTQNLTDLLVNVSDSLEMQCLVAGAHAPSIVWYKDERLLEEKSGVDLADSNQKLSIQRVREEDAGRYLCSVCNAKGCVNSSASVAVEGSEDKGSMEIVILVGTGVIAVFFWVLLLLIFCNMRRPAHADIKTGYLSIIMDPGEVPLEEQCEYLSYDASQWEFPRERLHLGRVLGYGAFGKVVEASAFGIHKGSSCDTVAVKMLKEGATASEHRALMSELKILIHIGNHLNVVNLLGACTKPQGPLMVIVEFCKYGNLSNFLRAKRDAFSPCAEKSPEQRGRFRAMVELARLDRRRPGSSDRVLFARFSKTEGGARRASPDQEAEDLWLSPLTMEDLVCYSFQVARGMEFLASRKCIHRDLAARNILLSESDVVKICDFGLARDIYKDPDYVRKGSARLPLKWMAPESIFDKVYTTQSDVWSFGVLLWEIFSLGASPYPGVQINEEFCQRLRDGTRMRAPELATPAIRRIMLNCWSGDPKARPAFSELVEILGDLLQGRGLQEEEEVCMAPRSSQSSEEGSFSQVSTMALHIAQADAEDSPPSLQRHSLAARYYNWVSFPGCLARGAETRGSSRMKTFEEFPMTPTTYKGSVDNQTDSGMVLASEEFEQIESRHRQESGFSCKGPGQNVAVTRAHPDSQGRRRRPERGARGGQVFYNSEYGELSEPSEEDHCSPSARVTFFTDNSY
Method: Adult human dermal lymphatic microvascular endothelial cells (HMVEC-dLyAD) (Cat# CC-2810, Lonza) were seeded into clear-bottom, TC treated 12 well plates (Cat #665180, Greiner Bio-One) in EGM-2MV (Cat# CC-3202, Lonza) at 180,000 cells/well (volume 1 mL), and the plates incubated at 37° C. and 5% CO2 for 6 hours.
96 well Maxisorp immuno plates (Cat #439454, Nunc) were coated with 100 μL of Total VEGFR3 capture antibody (Part #841888, Human Total VEGFR3/FLT4 ELISA Kit, Cat # DYC3491, R&D Systems), or Phospho VEGFR3 Capture antibody (Part #841885, Human Phospho VEGFR3/FLT4 ELISA Kit, Cat# DYC2724, R&D Systems). The plates were covered and incubated at room temperature overnight.
The coating antibody was flicked out and the plates washed three times with Wash Buffer (Phosphate buffered saline (137 mM NaCl, 2.7 nM KCl, 8.1 nM Na2HPO4, 1.5 mL KH2PO4, pH 7.2-7.4), 0.05% Tween 20). 300 μL of blocking buffer (5% v/v Tween 20, 5% w/v sucrose in PBS) was then added to wells and plate incubated for 2 hours at room temperature. Blocking solution is flicked out and plates washed three times and tapped dry.
Compound dilution series were prepared in EBM-2 (Cat # CC-3156, Lonza)+0.1% BSA (Cat# A8412, Sigma) with constant 0.1% DMSO concentration. 439 μL of sample or vehicle control was added to the cell monolayers. Cells are treated for 1 hour at 37° C. and 5% CO2. 250 ng/mL Recombinant human VEGFC (Cat #2179-VC, R & D Systems) added to wells and plates incubated for an additional 10 minutes at 37° C. and 5% CO2.
as §1
The harvested samples were then diluted 1:2 in IC Diluent #18 (5% Tween 20/PBS) and 100 μL transferred to the Total and Phospho VEGFR3 coated, blocked and washed 96 well plates and incubated for 2 hours at room temperature. The plates were then washed three times in wash buffer as described above and tapped dry. For detection of Total VEGFR3 100 μL of Detection antibody (Total VEGFR3 Detection Antibody Part#841888 in Total VEGFR3 kit) diluted in IC Diluent #1 (1% w/v BSA (Cat # A7906, Sigma-Aldrich)/PBS) was added to wells and the plate incubated for 2 hours at room temperature. The plate was then washed three times in wash buffer and tapped dry. 100 μL of streptavidin-HPR diluted in IC diluent #1 Streptavidin-HRP, Part #890803 in Total VEGFR3 kit) was added to wells and incubated at room temperature for 20 minutes followed by washing as described above. 100 μL Substrate solution (3,3′,5,5′-Tetramethylbenzidine (TMB) Liquid Substrate System for ELISA, Cat # T0440, Sigma-Aldrich) was added and the plate incubated for 20 minutes in the dark at room temperature followed by the addition of 50 μL stop solution (2 M H2SO4).
Total VEGFR3 levels were quantified using a Multiskan Ascent plate reader and Ascent software fitted with 450 nm filter.
For detection of Phospho VEGFR3, 100 μL of Detection antibody (Anti-Phospho-Tyrosine-HRP Detection Antibody, Part #841403 in Phospho VEGFR3 kit) was diluted in IC Diluent #1 (1% w/v BSA/PBS), added to the wells and the plate incubated for 2 hours at room temperature. The plate was then washed three times in wash buffer as described above and tapped dry. 100 μL Substrate solution (3,3′,5,5′-Tetramethylbenzidine (TMB) Liquid Substrate System for ELISA, Cat # T0440, Sigma-Aldrich) was added and the plate incubated for 20 minutes in the dark at room temperature followed by the addition of 50 μL stop solution (2 M H2SO4).

T2 sequence (P35968 20-1356): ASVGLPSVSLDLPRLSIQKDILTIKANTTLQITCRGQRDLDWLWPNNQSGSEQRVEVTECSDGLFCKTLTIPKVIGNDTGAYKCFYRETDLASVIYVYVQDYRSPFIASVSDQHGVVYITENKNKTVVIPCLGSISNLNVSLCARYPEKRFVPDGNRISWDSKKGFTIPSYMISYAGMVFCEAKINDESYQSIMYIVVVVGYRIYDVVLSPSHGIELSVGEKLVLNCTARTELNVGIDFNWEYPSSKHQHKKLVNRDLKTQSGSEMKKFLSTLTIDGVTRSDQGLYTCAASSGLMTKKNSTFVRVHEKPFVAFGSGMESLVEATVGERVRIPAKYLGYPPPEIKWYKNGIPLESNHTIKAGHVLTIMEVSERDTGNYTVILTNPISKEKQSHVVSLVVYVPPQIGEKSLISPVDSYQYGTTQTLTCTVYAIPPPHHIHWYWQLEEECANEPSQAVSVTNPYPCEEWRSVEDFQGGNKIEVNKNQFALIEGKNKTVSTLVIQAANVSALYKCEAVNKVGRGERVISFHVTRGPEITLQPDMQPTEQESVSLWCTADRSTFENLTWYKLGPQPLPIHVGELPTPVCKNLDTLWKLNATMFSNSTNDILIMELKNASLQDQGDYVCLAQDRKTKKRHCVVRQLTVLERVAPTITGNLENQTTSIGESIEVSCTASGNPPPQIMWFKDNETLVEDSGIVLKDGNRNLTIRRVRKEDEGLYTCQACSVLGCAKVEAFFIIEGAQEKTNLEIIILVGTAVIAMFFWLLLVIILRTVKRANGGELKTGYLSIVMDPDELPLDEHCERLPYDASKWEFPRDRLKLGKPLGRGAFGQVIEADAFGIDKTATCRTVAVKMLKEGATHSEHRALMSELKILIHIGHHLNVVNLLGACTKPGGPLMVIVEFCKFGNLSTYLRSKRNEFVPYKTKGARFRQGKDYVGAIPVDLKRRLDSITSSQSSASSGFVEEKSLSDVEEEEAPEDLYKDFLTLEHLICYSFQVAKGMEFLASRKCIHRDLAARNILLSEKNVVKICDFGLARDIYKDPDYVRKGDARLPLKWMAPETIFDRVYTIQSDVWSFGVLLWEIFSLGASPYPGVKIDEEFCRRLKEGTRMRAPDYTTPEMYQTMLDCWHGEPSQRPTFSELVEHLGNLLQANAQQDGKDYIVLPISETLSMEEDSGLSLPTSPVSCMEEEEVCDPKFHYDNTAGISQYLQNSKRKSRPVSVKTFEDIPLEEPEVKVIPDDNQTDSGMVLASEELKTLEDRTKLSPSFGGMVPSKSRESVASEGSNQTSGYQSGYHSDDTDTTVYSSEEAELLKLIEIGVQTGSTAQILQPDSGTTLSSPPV
Chain of VEGFR3 cytoplasmic domain (P35916 798-1298 isoform P35916-1): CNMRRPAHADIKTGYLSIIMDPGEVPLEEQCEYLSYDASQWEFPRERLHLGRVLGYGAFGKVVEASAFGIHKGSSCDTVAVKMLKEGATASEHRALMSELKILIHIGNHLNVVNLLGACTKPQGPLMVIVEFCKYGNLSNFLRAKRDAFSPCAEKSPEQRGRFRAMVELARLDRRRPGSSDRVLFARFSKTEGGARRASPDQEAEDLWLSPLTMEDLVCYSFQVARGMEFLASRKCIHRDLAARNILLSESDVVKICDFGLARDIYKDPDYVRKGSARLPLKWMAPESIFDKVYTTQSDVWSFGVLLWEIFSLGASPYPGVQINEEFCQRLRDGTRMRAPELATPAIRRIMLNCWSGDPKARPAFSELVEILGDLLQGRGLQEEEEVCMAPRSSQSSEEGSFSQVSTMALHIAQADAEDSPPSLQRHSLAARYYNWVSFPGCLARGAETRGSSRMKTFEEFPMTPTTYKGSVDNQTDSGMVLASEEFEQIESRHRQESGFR
T1 sequence (Q05397 whole entry): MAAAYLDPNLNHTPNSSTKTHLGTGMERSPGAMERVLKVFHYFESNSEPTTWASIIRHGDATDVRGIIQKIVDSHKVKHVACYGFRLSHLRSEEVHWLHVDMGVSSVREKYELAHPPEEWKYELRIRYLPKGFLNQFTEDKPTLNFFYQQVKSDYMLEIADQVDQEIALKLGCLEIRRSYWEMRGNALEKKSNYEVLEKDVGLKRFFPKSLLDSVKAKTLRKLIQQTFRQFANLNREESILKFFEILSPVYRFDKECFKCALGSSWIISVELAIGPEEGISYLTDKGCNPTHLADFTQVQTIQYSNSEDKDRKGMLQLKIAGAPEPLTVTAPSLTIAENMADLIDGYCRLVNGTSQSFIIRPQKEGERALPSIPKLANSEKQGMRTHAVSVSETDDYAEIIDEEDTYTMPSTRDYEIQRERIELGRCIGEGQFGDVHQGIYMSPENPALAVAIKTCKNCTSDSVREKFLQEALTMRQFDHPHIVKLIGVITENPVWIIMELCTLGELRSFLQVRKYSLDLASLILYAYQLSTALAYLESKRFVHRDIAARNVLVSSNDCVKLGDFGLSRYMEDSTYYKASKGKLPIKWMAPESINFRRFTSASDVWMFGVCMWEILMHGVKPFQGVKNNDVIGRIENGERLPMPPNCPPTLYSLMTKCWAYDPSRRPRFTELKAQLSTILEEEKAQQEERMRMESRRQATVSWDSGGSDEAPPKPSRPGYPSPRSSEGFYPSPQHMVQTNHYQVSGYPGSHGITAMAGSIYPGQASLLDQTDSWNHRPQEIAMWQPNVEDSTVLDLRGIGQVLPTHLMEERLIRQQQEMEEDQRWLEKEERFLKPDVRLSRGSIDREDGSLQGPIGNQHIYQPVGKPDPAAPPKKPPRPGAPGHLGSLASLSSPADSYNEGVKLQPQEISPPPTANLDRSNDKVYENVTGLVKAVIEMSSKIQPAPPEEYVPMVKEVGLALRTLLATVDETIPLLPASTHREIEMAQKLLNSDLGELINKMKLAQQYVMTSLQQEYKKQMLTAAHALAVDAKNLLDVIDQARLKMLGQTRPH

Compound `CCC(C(N)=O)c1ccccc1CCc1nc(Nc2ccc(C3CCNCC3)cc2)ncc1C(F)(F)F` (racemic) [Compound 1, 2-(2-(2-(2-((4-(Piperidin-4-yl)phenyl)amino)-5-(trifluoromethyl)pyrimidin-4-yl)ethyl)phenyl)butanamide] has an IC50 (FAK) of 1180 nM.
`CC(C(N)=O)c1ccccc1CCc1nc(Nc2cnn(C3CCNCC3)c2)ncc1C(F)(F)F` (racemic) [Compound 56, 2-(2-(2-(2-((1-(piperidin-4-yl)-1H-pyrazol-4-yl)amino)-5-(trifluoromethyl)pyrimidin-4-yl)ethyl)phenyl)propanamide] gave an IC50 (FAK) of 517 nM.
With `NC(=O)C1(c2ccccc2CCc2nc(Nc3ccc(C4CNC4)cc3)ncc2C(F)(F)F)CC1` [Compound 4, 1-(2-(2-(2-((4-(azetidin-3-yl)phenyl)amino)-5-(trifluoromethyl)pyrimidin-4-yl)ethyl)phenyl)cyclopropanecarboxamide] the IC50 (FAK) was > 2000 nM and the IC50 (VEGFR2) was 2040 nM.
`CC(C(N)=O)c1ccccc1CCc1nc(Nc2cnn(C3CCN(C)CC3)c2)ncc1Cl` (stereo not drawn) [Compound 44, 2-(2-(2-(5-Chloro-2-(1-(1-methylpiperidin-4-yl)-1H-pyrazol-4-ylamino)pyrimidin-4-yl)ethyl)phenyl)propanamide] gave an IC50 [1] of 9 nM, an IC50 (VEGFR2) of 138 nM and an IC50 (VEGFR3) of 52 nM.
In the case of `Cn1cc(Nc2ncc(Cl)c(CCc3ccccc3C(C)(C)C(N)=O)n2)cn1` [Compound 45, 2-(2-(2-(5-Chloro-2-((1-methyl-1H-pyrazol-4-yl)amino)pyrimidin-4-yl)ethyl)phenyl)-2-methylpropanamide], the IC50 [1] is reported as 3 nM, the IC50 (VEGFR2) is reported as 370 nM and the IC50 (VEGFR3) is reported as 23 nM.
In the case of `CC(C(N)=O)c1ccccc1CCc1nc(Nc2cnn(C)c2)ncc1C(F)(F)F` (stereo not drawn) [Compound 55, 2-(2-(2-(2-((1-Methyl-1H-pyrazol-4-yl)amino)-5-(trifluoromethyl)pyrimidin-4-yl)ethyl)phenyl) propanamide], the IC50 (FAK) is reported as 115 nM and the IC50 [1] is reported as 15 nM.
Compound `NC(=O)C1(c2ccccc2CCc2nc(Nc3ccc(C4CCNCC4)nc3)ncc2C(F)(F)F)CC1` [Compound 68, 1-(2-(2-(2-((6-(Piperidin-4-yl)pyridin-3-yl)amino)-5-(trifluoromethyl)pyrimidin-4-yl)ethyl)phenyl)cyclopropanecarboxamide] has an IC50 [1] of 28 nM, an IC50 (VEGFR2) of 4080 nM and an IC50 (VEGFR3) of 51 nM.
